In data set [1] the test system is SUDHL5. The experiment in a line: Antiproliferation assay SUDHL5 (Assay 7). It counts as cell-based. The protocol: (§1) Assessment of the Anti-Proliferative Effect of Compounds in Different Cell Lines
(§2) The impact of compounds on the proliferation of different cell lines was assessed using the CellTiter-Glo® Luminescent Cell Viability reagent from Promega (G7573).
(§3) In parallel, cells were plated in a reference (day 0) plate for time zero determination.
(§4) Rim wells were excluded. The cells were incubated for 72 h hours in a humidified incubator at 37° C. The day 0 plate was measured by adding 30 μL/well of CTG solution (CellTiter-Glo® Luminescent Cell Viability reagent, Promega G7573) to time zero wells in the reference plate followed by a 10 minutes incubation and luminescence reading at 0.1 ms. using the PHERAstar FS microplate reader (BMG Labtech).
(§5) After 72 h incubation, the treated plates were measured in the same way as the day 0 plate mentioned above.

The test system of data set [2] is SUDHL5. As to the kind of experiment: Induction of cytotoxicity, SUDHL5 (Assay 6). To be noted: read-out: IC50 Cytotox SUDHL5 [M] (median), SUDHL5 cells, 5 h, CellTiter-Glo.
For the next data set, the system named is AMO-1. The experiment in a line: Antiproliferation assay AMO-1 (Assay 7). Particulars: AMO-1 cells, CellTiter-Glo, single determinations, read-out: IC50 Antiproli AMO-1. The class given is cell-based. On the procedure:
as §1, §2, §3, §4, §5
On the technique in general: ATP-based viability assays read luminescence as a measure of living cells.

Data set [3] relates to SUDHL10. As to the kind of experiment: Induction of caspase-3/7 activity, SUDHL10 (Assay 4). The class given is cell-based. On the procedure: (§6) Induction of Caspase-3/7 Activity upon Treatment of Cells with Selected Compounds
(§7) The BH3-domain of MCL-1 sequesters pro-apoptotic proteins, thereby inhibiting apoptosis. In contrast, MCL-1 inhibitors are expected to antagonize this effect leading to an increase in apoptosis, which can be determined by measuring the activity of caspase-3/7.
(§8) The activity of caspase-3/7 was determined in DLBCL (Diffuse large B-cell lymphoma) cell lines (SUDHL5 and SUDHL10) upon treatment with different compounds, using the Caspase-Glo® 3/7 reagent from Promega (G8092).
(§9) Rim wells were excluded. The cells were incubated for 3 h hours in a humidified incubator at 37° C.
(§10) For the evaluation of the results, the background measured with “medium-only” was subtracted from all other values. […] The Bella DRC Master Sheet was used to calculate EC50s, with fixed C0=1 and Cl=plateau/max induction for the reference compound.

The subject of data set [4] is SUDHL5. The experiment in a line: Induction of caspase-3/7 activity, SUDHL5 (Assay 4). The class given is cell-based. The protocol:
as §6, §7, §8, §9, §10

The next data set has as its system A2780. As to the kind of experiment: Antiproliferation assay A2780 (Assay 7). To be noted: A2780 cells, CellTiter-Glo, single determinations, read-out: IC50 Antiproli A2780. The class given is cell-based. On the procedure: as §1, §2, §3, §4, §5
The next data set has as its target MCL-1 (Homo sapiens (Human), UniProt Q07820, K194A/K197A/R201A). The experiment in a line: Protein-protein interaction assay MCL-1/Noxa BH3 peptide (MCL-1 assay), TR-FRET. The class given is binding. Particulars: MCL-1/Noxa BH3 peptide TR-FRET; median. On the procedure:
Protein-Protein Interaction Assay: MCL-1/Noxa BH3 Peptide (MCL-1 Assay)
The dose-dependent inhibition by the compounds described in this invention of the interaction between MCL-1 and the BH3 domain of Noxa (both human) was determined using a steady state binding competition assay with time-resolved fluorescence energy transfer (TR-FRET) readout. For that purpose MCL-1 (amino acids 173-321, N-terminal fused to Maltose Binding Protein (MBP) SEQ ID 1)) and a synthetic Noxa BH3-derived peptide of sequence Biotin-PEG2-PEG2-PAELEVE-Nva-ATQLRRFGDKLNFRQKLL-amide (SEQ ID 2) served as protein receptor and tracer ligand respectively. The MBP-MCL-1 was purchased from Beryllium (Bedford, Mass., USA). The expression and purification of this protein construct has been described elsewhere (DOI:10.1371/journal.pone.0125010). The Noxa BH3-derived peptide can be obtained from e.g. Biosyntan (Berlin, Germany).
In the assay 11 different concentrations of each compound (0.1 nM, 0.33 nM, 1.1 nM, 3.8 nM, 13 nM, 44 nM, 0.15 μM, 0.51 μM, 1.7 μM, 5.9 μM and 20 μM) were typically measured as duplicates in the same microtiter plate. For that, 100-fold concentrated DMSO solutions were prepared by serial dilutions (1:3.4) of a 2 mM stock solution in a clear, 384-well microtiter plate (Greiner Bio-One, Frickenhausen, Germany). From there, 50 nl were transferred in a dark test plate (Greiner Bio-One, Frickenhausen, Germany). The assay was initiated by addition of 2 μl of a 2,5-fold concentrated MBP-MCL-1 solution (usually for a 1 nM end concentration in 5 μl reaction volume) in aqueous assay buffer [50 mM Tris/HCl pH 7, 100 mM sodium chloride (NaCl), 50 mM potassium fluoride (KF), 0.005% Tween-20, 2 mM DTT, 0.1% bovine gamma globulin (BGG)] to the compounds in the assay plate. This was followed by a 10-minute incubation step at 22° C. for pre-equilibration of the putative complex between MBP-MCL-1 and the compounds. After that, 3 μl of a 1.67-fold concentrated solution (in assay buffer) consisting of Noxa BH3-derived peptide (1 nM end concentration) and TR-FRET detection reagents [1.67 nM anti-MBP-Eu cryptate and 1.67 nM streptavidin-XL665 (both from Cisbio Bioassays, Codolet, France)], were added.
The mixture was incubated in the dark for one hour at 22° C. and then overnight at 4° C. The formation of MCL-1/Noxa complexes was determined by measuring the resonance energy transfer of the anti-MBP-Eu-cryptate antibody to the streptavidin-XL665 present in the reaction. For that purpose, the fluorescence emission at 620 nm and 665 nm after excitation at 330-350 nm was measured in a TR-FRET measuring instrument, for instance a Rubystar or a Pherastar (both from BMG Lab Technologies, Offenburg, Germany) or a Viewlux (Perkin-Elmer). The ratio of the emission at 665 nm and at 622 nm was used as indicator of the amount of MCL-1/NOXA complexes present.
The resulting data (ratio) were normalized, taking 0% inhibition as the mean value of control measurements (usually 32 data points) where all reagents were included. In this case 50 nl DMSO were used instead of compounds. A 100% inhibition corresponded to the mean value of control measurements (usually 32 data points) where all reagents except MCL-1 were included. IC50 values were determined by regression analysis based on a 4 parameter equation (minimum, maximum, IC50, Hill; Y=Max+(Min−Max)/(1+(X/IC50)^Hill) using the Screener Software (Genedata).
Background: Time-resolved FRET reads energy transfer from a long-lived donor to a nearby acceptor.

Data set [5] concerns SUDHL10. As to the kind of experiment: Induction of cytotoxicity, SUDHL10 (Assay 6). Particulars: read-out: IC50 Cytotox SUDHL10 [M] (median), SUDHL10 cells, 5 h, CellTiter-Glo.
Procedure: In principle, compounds that induce apoptosis will concomitantly induce cell cytotoxicity. Therefore, cytotoxicity assays were run in parallel in SUDHL5 and SUDHL10 cells.
The different cell lines were plated in culture medium (RPMI 1640 [GIBCO #22400-089] supplemented with 10% Fetal Bovine Serum) at a density of 3,300 cells in 30 μl/well in a sterile, solid black, flat bottom, polystyrene, TC-treated 384-well microplate (Corning #3571) using Multidrop Combi Reagent Dispenser. As a control, medium without cells was also added to the plate. Cells were incubated in a humidified incubator at 37° C. overnight. On the next day, the cells were treated with compounds (stock solution, 10 mM in DMSO) using the HP D300 Digital Dispenser in a concentration range of 3.3×10e-5 M (33 μM) to 5×10e-9 M (5 nM) in a single-dot curve with at least 16 dilutions and a DMSO concentration of 0.33%. Rim wells were excluded. The cells were incubated for 5 h hours in a humidified incubator at 37° C. After this incubation, 30 μl of CellTiter-Glo® Luminescent Cell Viability reagent (Promega, G7573) was added to each well using the Multidrop Combi Reagent Dispenser, followed by 15 min incubation on a shaker at room temperature. Finally, luminescence was read at 0.1 ms, with a gain of 3000 using the PHERAstar FS microplate reader (BMG Labtech).
The Bella DRC Master Sheet was used to calculate IC50s, with fixed CI=0 and C0=1.
For the next data set, the system named is MV-4-11. As to the kind of experiment: Antiproliferation assay MV-4-11 (Assay 7). It counts as cell-based. To be noted: MV-4-11 cells, CellTiter-Glo, single determinations, read-out: IC50 Antiproli MV-4-11. On the procedure: as §1, §2, §3, §4, §5
The mark [6] stands for this setting: Homo sapiens, SU-DHL-5, 72 h, SUDHL5 cells, CellTiter-Glo, median, read-out: IC50 Antiproli SUDHL5 [M] (median).
The mark [7] stands for this setting: Homo sapiens, SU-DHL10, 3 h, SUDHL10 cells, Caspase-Glo 3/7, median.
Where [8] appears, read: Homo sapiens, SU-DHL-5, 3 h, SUDHL5 cells, Caspase-Glo 3/7, median.
Setting [9] is: 72 h, trifluoroacetic acid salt.
Where [10] appears, read: SUDHL5 cells, 72 h, CellTiter-Glo; median; read-out: IC50 Antiproli SUDHL5 [M] (median).
[11] abbreviates: SUDHL10 cells, 3 h, Caspase-Glo 3/7; median.
Setting [12] is: SUDHL5 cells, 3 h, Caspase-Glo 3/7; median.

Values joined by “and” are separate entries in the source; they are usually repeats but may differ in a detail not shown here. Equal values may be shown once. Where a name gives a salt, the structure may show the parent alone. Read-outs that look alike come from different tables or passages of the source. Where only a bound is given, the exact number is not on record here.

Chain of MCL-1 (Q07820 whole entry K194A/K197A/R201A, looked up): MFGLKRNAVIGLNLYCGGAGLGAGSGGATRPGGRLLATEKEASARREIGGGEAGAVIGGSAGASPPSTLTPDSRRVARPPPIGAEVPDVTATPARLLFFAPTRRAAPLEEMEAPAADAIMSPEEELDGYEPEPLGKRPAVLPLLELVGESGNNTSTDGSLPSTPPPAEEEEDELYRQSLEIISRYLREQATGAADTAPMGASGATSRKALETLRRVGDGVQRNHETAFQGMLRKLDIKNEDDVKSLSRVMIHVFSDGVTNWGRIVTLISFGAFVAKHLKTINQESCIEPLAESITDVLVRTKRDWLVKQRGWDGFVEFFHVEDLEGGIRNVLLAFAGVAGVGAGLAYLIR

As for `CCc1c2c(nn1C)COCCCCn1c(C(=O)O)c(CCCOc3ccc(F)c4ccccc34)c3ccc(F)c-2c31` (racemic) [Example 26, (rac)-12-ethyl-13-fluoro-1-(3-((4-fluoronaphthalen-1-yl)oxy)propyl)-11-methyl-4,5,6,7,9,11-hexahydropyrazolo[4′,3′:9,10][1]oxa[6]azacycloundecino[8,7,6-hi]indole-2-carboxylic acid], the concentration for half-maximal inhibition (IC50) (usually the concentration that inhibits the measured activity by half) came to 2.2e-06 M in the data set with SUDHL5 [1] (setting [6]); 1.8e-06 M with SUDHL5 [2] (Homo sapiens, SU-DHL-5, 5 h); 4.31 µM with AMO-1 (Homo sapiens, AMO1, 72 h); 10.2 µM with A2780 (Homo sapiens, A2780, 72 h); 0.0014 µM against MCL-1; 3.7e-06 M in the data set on SUDHL10 [5] (Homo sapiens, SU-DHL10, 5 h). The concentration for a half-maximal effect (EC50) (commonly the concentration that produces a half-maximal response) in the data set on SUDHL10 [3] (setting [7]) was 3.3 µM; in the data set on SUDHL5 [4] (setting [8]) it was 1.5 µM.

Consider `Cc1c2c(nn1C)CNCCCCn1c(C(=O)O)c(CCCOc3cccc4ccccc34)c3ccc(F)c-2c31` (racemic) [Example 47, (rac)-4-fluoro-2,3-dimethyl-7-[3-(1-naphthyloxy)propyl]-10,11,12,13,14,15-hexahydro-2H-pyrazolo[3′,4′:8,9][1,6]diazacycloundecino[10,11,1-hi]indole-8-carboxylic acid trifluoroacetic acid salt], for which the IC50 with SUDHL5 [1] (Homo sapiens, SU-DHL-5; SUDHL5 cells, 72 h, CellTiter-Glo; median; read-out: IC50 Antiproli SUDHL5 [M] (median)) is 2.1e-06 M; with MV-4-11 (Homo sapiens, MV4-11, 72 h), 1.02 µM; in the data set on MV-4-11 (setting [9]), 1.32 µM; with SUDHL5 [2] (Homo sapiens, SU-DHL-5, 5 h), 2.2e-06 M; in the data set on A2780 (setting [9]), 18.9 µM; in the data set on A2780 (Homo sapiens, A2780, 72 h) it was 20.9 µM. Moreover, the 50% inhibitory concentration (IC50) against MCL-1 came out at 0.00082 µM; with SUDHL10 [5] (Homo sapiens, SU-DHL10, 5 h), 5.6e-06 M. For the same molecule, the EC50 in the data set on SUDHL10 [3] (Homo sapiens, SU-DHL10; SUDHL10 cells, 3 h, Caspase-Glo 3/7; median) was found to be 5 µM; with SUDHL5 [4] (Homo sapiens, SU-DHL-5; SUDHL5 cells, 3 h, Caspase-Glo 3/7; median), 1.4 µM.

As to `CCc1c2c(nn1C)COCCCCn1c(C(=O)O)c(CCCOc3cccc4ccccc34)c3ccc(F)c-2c31` (single isomer, unassigned; enantiomer 2) [Example 8, 3-ethyl-4-fluoro-2-methyl-7-{3-[(naphthalen-1-yl)oxy]propyl}-2,10,11,12,13,15-hexahydro-pyrazolo[4′,3′:9,10][1,6]oxazacycloundecino[8,7,6-hi]indole-8-carboxylic acid-N-ethylethanamine salt (enantiomer 2)], the IC50 in the data set with SUDHL5 [1] (setting [10]) was 1.5e-05 M; in the data set with MV-4-11 (72 h, listed as 08), 21.3 µM; in the data set on SUDHL5 [2], 2.7e-05 M; with A2780 (72 h, listed as 08), 20 µM; against MCL-1, 0.026 µM; in the data set with SUDHL10 [5], greater than 3.3e-05 M. The half-maximal effective concentration (EC50) in the data set with SUDHL10 [3] (setting [11]) was greater than 33 µM; in the data set with SUDHL5 [4] (setting [12]), 30 µM.

With `Cc1c2c(nn1C)COCCCCn1c(C(=O)O)c(CCCOc3cccc4cc(F)ccc34)c3ccc(F)c-2c31` (single isomer, unassigned; enantiomer 2) [Example 14, 4-fluoro-7-{3-[(6-fluoronaphthalen-1-yl)oxy]propyl}-2,3-dimethyl-2,10,11,12,13,15-hexahydro-pyrazolo[4′,3′:9,10][1,6]oxazacycloundecino[8,7,6-hi]indole-8-carboxylic acid-N-ethylethanamine salt (enantiomer 2)], the concentration for half-maximal inhibition (IC50) in the data set on SUDHL5 [1] (setting [10]) is 4e-06 M; with SUDHL5 [2] it was 6e-06 M; in the data set with AMO-1 (72 h) it was 7.54 µM and 11.6 µM; in the data set on A2780 (72 h) it was 19.8 µM; on MCL-1 it was 0.017 µM; in the data set with SUDHL10 [5] it was 1.2e-05 M. Moreover, the results for the concentration for a half-maximal effect (EC50) with SUDHL10 [3] (setting [11]) and in the data set on SUDHL5 [4] (setting [12]) were 14 µM and 5.4 µM, respectively.

`Cc1c2c(nn1C)C[N+](C)(C)CCCCn1c(C(=O)O)c(CCCOc3cccc4ccccc34)c3ccc(F)c-2c31` [Example 50, 8-carboxy-4-fluoro-2,3,14,14-tetramethyl-7-[3-(1-naphthyloxy)propyl]-10,11,12,13,14,15-hexa-hydro-2H-pyrazolo[3′,4′:8,9][1,6]diazacycloundecino[10,11,1-hi]indol-14-ium trifluroacetate]: the half-inhibitory concentration (IC50) with SUDHL5 [1] (setting [6]) is 6.1e-06 M; with MV-4-11 (Homo sapiens, MV4-11, 72 h) it was 13.4 µM; with SUDHL5 [2] (Homo sapiens, SU-DHL-5, 5 h), 1.6e-05 M; with A2780 (Homo sapiens, A2780, 72 h) it was greater than 33 µM; against MCL-1 it was 0.00084 µM; in the data set on SUDHL10 [5] (Homo sapiens, SU-DHL10, 5 h), greater than 3.3e-05 M. Besides, the EC50 with SUDHL10 [3] (setting [7]) was greater than 33 µM; with SUDHL5 [4] (setting [8]), 20 µM.

For the origin of these results see patent US11286263B2, “Macrocyclic fluorine substituted indole derivatives” (The Broad Institute, Inc., priority 2017, dated 2022).
